Read-outs that look alike come from different tables or passages of the source.
What was measured:
Format in all cases: cell-based
Frizzled1-GFP = target: T1, Frizzled1-GFP (Homo sapiens, UniProt Q9UP38); assay: Frizzled internalization assay (Fzd1-GFP); parameters: key: Punctate similar to control=0; trace amount of punctate greater than control=1; moderate=3; strong=5; details: 6 hours, 0-5 point scale
T1 construct: expressed in transfected cells
Description: The Fzd1-GFP assay was performed following a procedure similar to previously published work (Chen, M. Y.; Wang, J. B.; Lu, J. Y.; Bond, M. C.; Ren, X. R.; Lyerly, H. K.; Barak, L. S.; Chen, W. Biochemistry 2009, 48, 10267). Cells stably expressing Frizzled1-GFP plated in confocal dishes were treated, after 24 hours, with 12.5 μM of test compound or DMSO for 6 hours at 37° C. followed by fixation with 4% paraformaldehyde. The cells were then examined by microscopy using a LSM 510-Meta confocal microscope (Carl Zeiss, Thornwood, N.Y., USA) equipped with 40× and 100× apo chromat objectives. YFP was excited using a 488-nm argon laser line. Images were processed using the LSM software Image Browser (CarlZeiss, Thornwood, N.Y., USA). Plates were read twice in blinded fashion using a 0-5 point scale. ^aPunctate similar to control=0, trace amount of punctate greater than control=1, moderate=3, strong=5.

[1] = tested on: Wnt/β-catenin transcription; assay: Wnt-3A-stimulated TOPFlash reporter assay in HEK293 cells; details: for IC50: Wnt-3A conditioned medium, 8 hour treatment, read-out: Inhibition Wnt/β-catenin transcription TopFlash IC50
Description: Stably transfected cells were seeded in 100 μl of cell growth medium/well in 96-well plates at 100% confluency. Fifty microliters of Wnt-3A conditioned medium containing the chemical compounds to be tested or DMSO was added to each well. After an 8 hour treatment, the cells were washed once with PBS and lysed with 55 μl of Passive Lysis Buffer supplied in the Dual-Luciferase Reporter Assay kit (Promega, Madison, Wis.). Twenty-five microliters of cell lysate was used for measuring luciferase activity in a 96-well plate reader (FluoStar Optima, BMG Labtech, Chicago, Ill.). Data were fit using GraphPad Prism (mean±SEM, n>=2).

β-catenin = assay: Western blot of cytosolic β-catenin in HCT-116 cells; details: Homo sapiens, HCT-116, 18 h, 2.0 μM compound, read-out: Remaining cytosolic β-catenin
Description: Western blots were performed following a procedure similar to previously published work (Osada, T.; Chen, M. Y.; Yang, X. Y.; Spasojevic, I.; Vandeusen, J. B.; Hsu, D.; Clary, B. M.; Clay, T. M.; Chen, W.; Morse, M. A.; Lyerly, H. K. Cancer Research 2011, 71, 4172). HCT-116 cells were grown to about 80% confluency in poly-D-lysine coated six-well plates 48 hours before treatment and followed by 2.0 μM compounds or DMSO incubation for 18 hours in growth medium. After treatment, the cytosolic fraction was isolated as described (Osada, T.; Chen, M. Y.; Yang, X. Y.; Spasojevic, I.; Vandeusen, J. B.; Hsu, D.; Clary, B. M.; Clay, T. M.; Chen, W.; Morse, M. A.; Lyerly, H. K. Cancer Research 2011, 71, 4172). Immunoblots using antibodies to […] (E-5, Santa Cruz Biotechnology catalog number sc-7963) was used to detect β-catenin protein levels in the cytosol, and immunoblots using antibodies to β-actin (C-4, Santa Cruz Biotechnology, catalog number SC-47778) was used for loading controls.
Inhibition of Wnt signaling was determined by analyzing the reduction of cytosolic β-catenin by Western blot (FIG. 1, 2).

[2] = tested on: colon cancer cell line HCT116; assay: Cell proliferation assay (MTS)
Description: The colon cancer cell line HCT116 was used in the cell proliferation assay. The cells were plated in 100 μl of growing medium/well in 96-well plates at 5,000 cells per well and treated with compounds from 0.04 to 10 μM for 72 hours, after which point the cells were analyzed by colorimetric MTS assay (Promega, Madison, Wis., USA). Data were fit using GraphPad Prism (mean±SEM, n 3).

T1 sequence (Q9UP38 70-647): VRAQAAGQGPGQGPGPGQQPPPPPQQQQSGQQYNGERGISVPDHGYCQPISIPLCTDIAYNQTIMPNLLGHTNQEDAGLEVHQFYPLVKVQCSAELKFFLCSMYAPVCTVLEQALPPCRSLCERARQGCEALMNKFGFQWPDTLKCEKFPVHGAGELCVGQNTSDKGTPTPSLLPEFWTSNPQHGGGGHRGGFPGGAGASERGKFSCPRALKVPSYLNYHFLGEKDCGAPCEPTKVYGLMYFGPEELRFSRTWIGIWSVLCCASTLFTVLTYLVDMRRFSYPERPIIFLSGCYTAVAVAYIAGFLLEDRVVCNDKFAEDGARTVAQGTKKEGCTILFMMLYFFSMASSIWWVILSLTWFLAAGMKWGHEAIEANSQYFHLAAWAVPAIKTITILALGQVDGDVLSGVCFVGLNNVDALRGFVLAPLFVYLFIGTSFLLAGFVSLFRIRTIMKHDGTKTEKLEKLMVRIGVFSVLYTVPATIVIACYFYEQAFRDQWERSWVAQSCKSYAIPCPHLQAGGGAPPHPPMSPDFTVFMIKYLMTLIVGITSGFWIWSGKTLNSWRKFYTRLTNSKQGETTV

SMILES	Fzd1-GFP internalization @12.5 μM (Frizzled1-GFP)	IC50 ([1]; Homo sapiens, HEK293, 8 h) [nM]	also measured
O=C(Nc1ccccc1)c1cc(Cl)ccc1O [Compound 1, 5-chloro-2-hydroxy-N-phenylbenzamide]	0	11800	
O=C(Nc1ccc([N+](=O)[O-])cc1)c1cc(Cl)ccc1O [Compound 2, 5-chloro-2-hydroxy-N-(4-nitrophenyl)benzamide]	5		IC50 [1]: 990 ± 320 nM
CC(=O)c1ccc(NC(=O)c2cc(Cl)ccc2O)cc1 [Compound 3, N-(4-acetylphenyl)-5-chloro-2-hydroxybenzamide]	0	6420 ± 510	
NC(=O)c1ccc(NC(=O)c2cc(Cl)ccc2O)cc1 [Compound 4, N-(4-carbamoylphenyl)-5-chloro-2-hydroxybenzamide]	0	> 12000	
CS(=O)(=O)c1ccc(NC(=O)c2cc(Cl)ccc2O)c(Cl)c1 [Compound 5, 5-chloro-N-(2-chloro-4-(methylsulfonyl)phenyl)-2-hydroxybenzamide]	0	7660	
O=C(c1ccccc1)c1ccc(NC(=O)c2cc(Cl)ccc2O)cc1 [Compound 6, N-(4-benzoylphenyl)-5-chloro-2-hydroxybenzamide]	0	15000	
O=C(Nc1ccc(C(F)(F)F)cc1)c1cc(Cl)ccc1O [Compound 8, 5-chloro-2-hydroxy-N-(4-(trifluoromethyl)phenyl)benzamide]	5	290 ± 60	activity at 2 µM (β-catenin): 7%; IC50 ([2]; Homo sapiens, HCT-116, HCT116, 72 hours, 0.04 to 10 μM, read-out: Anti-proliferation IC50 (μM), MTS assay): 0.67 ± 0.09 µM
O=C(Nc1cccc(C(F)(F)F)c1)c1cc(Cl)ccc1O [Compound 9, 5-chloro-2-hydroxy-N-(3-(trifluoromethyl)phenyl)benzamide]	5	890 ± 320	
O=C(Nc1ccc(C(F)(F)F)cc1F)c1cc(Cl)ccc1O [Compound 10, 5-chloro-N-(2-fluoro-4-(trifluoromethyl)phenyl)-2-hydroxybenzamide]	5	550 ± 110	
O=C(Nc1ccc(Cl)cc1)c1cc(Cl)ccc1O [Compound 11, 5-chloro-N-(4-chlorophenyl)-2-hydroxybenzamide]	0	1300 ± 180	
O=C(Nc1cccc(Cl)c1)c1cc(Cl)ccc1O [Compound 12, 5-chloro-N-(3-chlorophenyl)-2-hydroxybenzamide]	5	1650 ± 120	
O=C(Nc1ccccc1Cl)c1cc(Cl)ccc1O [Compound 13, 5-chloro-N-(2-chlorophenyl)-2-hydroxybenzamide]	1	3050 ± 870	
O=C(Nc1cc(Cl)ccc1Cl)c1cc(Cl)ccc1O [Compound 15, 5-chloro-N-(2,5-dichlorophenyl)-2-hydroxybenzamide]	5	750 ± 130	
O=C(Nc1cc(Cl)cc(Cl)c1)c1cc(Cl)ccc1O [Compound 16, 5-chloro-N-(3,5-dichlorophenyl)-2-hydroxybenzamide]	5	700 ± 130	
O=C(Nc1ccc(Cl)c(Cl)c1)c1cc(Cl)ccc1O [Compound 17, 5-chloro-N-(3,4-dichlorophenyl)-2-hydroxybenzamide]	5		IC50 ([1]; Homo sapiens, HEK293): 730 ± 130 nM
O=C(Nc1ccc(F)cc1)c1cc(Cl)ccc1O [Compound 19, 5-chloro-N-(4-fluorophenyl)-2-hydroxybenzamide]	0	3840 ± 290	

SMILES	Fzd1-GFP internalization @12.5 μM (Frizzled1-GFP)	IC50 ([1]; Homo sapiens, HEK293, 8 h) [nM]	also measured
O=C(Nc1ccc(F)cc1F)c1cc(Cl)ccc1O [Compound 20, 5-chloro-N-(2,4-difluorophenyl)-2-hydroxybenzamide]	2	4020 ± 790	
O=C(Nc1ccc(F)cc1Cl)c1cc(Cl)ccc1O [Compound 22, 5-chloro-N-(2-chloro-4-fluorophenyl)-2-hydroxybenzamide]	3	1410 ± 210	
O=C(Nc1ccc(F)c(Cl)c1)c1cc(Cl)ccc1O [Compound 23, 5-chloro-N-(3-chloro-4-fluorophenyl)-2-hydroxybenzamide]	5	1210 ± 170	
O=C(NCc1ccc(C(F)(F)F)cc1)c1cc(Cl)ccc1O [Compound 25, 5-chloro-2-hydroxy-N-(4-(trifluoromethyl)benzyl)benzamide]	0	15100 ± 1400	
O=C(NC(=O)c1cc(Cl)ccc1O)c1ccc(C(F)(F)F)cc1 [Compound 57, 5-Chloro-2-hydroxy-N-(4-(trifluoromethyl)benzoyl)benzamide]	0	> 12000	
O=S(=O)(Nc1ccc(C(F)(F)F)cc1Cl)c1cc(Cl)ccc1O [Compound 58, 5-Chloro-N-(2-chloro-4-(trifluoromethyl)phenyl)-2-hydroxybenzenesulfonamide]	1	2570 ± 270	Anti-proliferation activity, MTS assay, in words ([2]; HCT116, up to 10 μM): no effect
CC(=O)Oc1ccc(Cl)cc1C(=O)Nc1ccc(C(F)(F)F)cc1Cl [Compound 59, 4-Chloro-2-((2-chloro-4-(trifluoromethyl)phenyl)carbamoyl)phenyl acetate]	5		IC50 ([1]; Homo sapiens, HEK293): 320 ± 30 nM
CCCCC/C=C\C/C=C\CCCCCCCC(=O)Oc1ccc(Cl)cc1C(=O)Nc1ccc([N+](=O)[O-])cc1Cl [Compound 69, 4-chloro-2-((2-chloro-4-nitrophenyl)carbamoyl)phenyl (9Z,12Z)-octadeca-9,12-dienoate]			inhibition at 2 µM ([1]; Homo sapiens, HEK293, 8 h): 85%
O=C(Nc1ccc([N+](=O)[O-])cc1Cl)c1cc(Cl)ccc1OC(=O)N1CCOCC1 [Compound 71, 4-chloro-2-((2-chloro-4-nitrophenyl)carbamoyl)phenyl morpholine-4-carboxylate]			Inhibition Wnt/β-catenin transcription TopFlash, % inhibition @ 20 μM ([1]; 20 μM): 60% inhibition
CCCCCCCCOC(=O)Oc1ccc(Cl)cc1C(=O)Nc1ccc([N+](=O)[O-])cc1Cl [Compound 72, 4-chloro-2-((2-chloro-4-nitrophenyl)carbamoyl)phenyl octyl carbonate]		500	
O=c1oc2ccc(Cl)cc2c(=O)n1-c1ccc([N+](=O)[O-])cc1Cl [Compound 75, 6-chloro-3-(2-chloro-4-nitrophenyl)-2H-benzo[e][1,3]oxazine-2,4(3H)-dione]		370 ± 130	
O=c1oc2ccc(Cl)cc2c(=O)n1-c1ccc(C(F)(F)F)cc1F [Compound 76, 6-chloro-3-(2-fluoro-4-(trifluoromethyl)phenyl)-2H-benzo[e][1,3]oxazine-2,4(3H)-dione]			Inhibition Wnt/β-catenin transcription TopFlash, % inhibition @ 1 μM ([1]; 1 μM): 90% @ 1 μM
CCCCCCC(=O)Oc1ccc(Cl)cc1C(=O)N(C(=O)CCCCCC)c1ccc([N+](=O)[O-])cc1Cl [Compound 77, 4-Chloro-2-((2-chloro-4-nitrophenyl)(heptanoyl)carbamoyl)phenyl heptanoate]		1600	
CCCCCCCCOC(=O)O/C(=N/c1ccc([N+](=O)[O-])cc1Cl)c1cc(Cl)ccc1OC(=O)OCCCCCCCC [Compound 79, 5-chloro-N-(2-chloro-4-nitrophenyl)-2-(((octyloxy)carbonyl)oxy)benzimidic (octyl carbonic) anhydride]		800	
O=C(Nc1ccc(Br)cc1)c1cc(Br)ccc1O [D, 5-bromo-N-(4-bromophenyl)-2-hydroxybenzamide, reference compound]			inhibition at 2 µM ([1]; Homo sapiens, HEK293, 8 h): 60%

Source: patent US10905665B2, “Chemical modulators of signaling pathways and therapeutic use” (Duke University, priority 2015, dated 2021)
